# In patent US4724233A, “Therapeutical application of phosphonylmethoxyalkyl adenines” (Stichting Rega VZW, priority 1985, dated 1988):
# Like-named read-outs stand apart in the source and are kept apart here.
# Tests used:
# Reovirus = assay: inhibition of cytopathic effect of reovirus; assay type: cell-based; details: Reovirus sp.; Table 3; Vero B cells; read-out: MIC50
# Parainfluenza 3 = assay: inhibition of cytopathic effect of parainfluenza 3; assay type: cell-based; details: Table 3; Vero B cells; read-out: MIC50
# Sindbis = assay: inhibition of cytopathic effect of Sindbis; assay type: cell-based; details: Table 3; Vero B cells; read-out: MIC50
# Coxsackie B4 = assay: inhibition of cytopathic effect of Coxsackie B4; assay type: cell-based; details: Enterovirus B, B4; Table 3; Vero B, HeLa cells; read-out: MIC50
# Polio 1 = assay: microbe, parasite or virus in culture; assay type: cell-based; details: HeLa, read-out: MIC50
# Measles = assay: inhibition of cytopathic effect of measles; assay type: cell-based; details: Measles morbillivirus; Table 3; Vero Flow cells; read-out: MIC50
# Vesicular stomatitis = assay: microbe, parasite or virus in culture; assay type: cell-based; details: read-out: MIC50
# Vaccinia = assay: microbe, parasite or virus in culture; assay type: cell-based; details: Orthopoxvirus vaccinia, PRK, read-out: MIC50
# Herpes simplex I (KOS) = assay: inhibition of cytopathic effect of herpes simplex 1 (KOS); assay type: cell-based, herpes simplex virus type 1; details: PRK cells; for EC50: Human alphaherpesvirus 1, read-out: MIC50
# Herpes simplex 2 (G) = assay: inhibition of cytopathic effect of herpes simplex 2 (G); assay type: cell-based, herpes simplex virus type 2; details: Human alphaherpesvirus 2, PRK, PRK cells, read-out: MIC50
# Moloney sarcoma = assay: inhibition of Moloney sarcoma virus; assay type: cell-based, Moloney mouse sarcoma virus; details: Mus musculus; Table 3; MO cells; read-out: MIC50
# HSV-1 (strain) McIntyre = assay: inhibition of cytopathic effect of HSV-1 strain McIntyre; assay type: cell-based, herpes simplex virus type 1; details: Human alphaherpesvirus 1; Table 4; HSV-1 McIntyre, PRK cells; read-out: MIC50
# [1] = tested on: HSV-1 (strain) TK^- B2006; assay: inhibition of cytopathic effect of HSV-1 TK- strain B2006; assay type: cell-based, herpes simplex virus type 1; details: Human alphaherpesvirus 1, PRK, read-out: MIC50
# [2] = tested on: HSV-1 (strain) TK^- C1101; assay: inhibition of cytopathic effect of HSV-1 TK- strain C1101; assay type: cell-based, herpes simplex virus type 1; details: Human alphaherpesvirus 1, PRK, read-out: MIC50
# HSV-2 (strain) 196 = assay: inhibition of cytopathic effect of HSV-2 strain 196; assay type: cell-based, herpes simplex virus type 2; details: Human alphaherpesvirus 2; Table 4; HSV-2 196, PRK cells; read-out: MIC50
# HSV-2 (strain) Lyons = assay: inhibition of cytopathic effect of HSV-2 strain Lyons; assay type: cell-based, herpes simplex virus type 2; details: Human alphaherpesvirus 2; Table 4; HSV-2 Lyons, PRK cells; read-out: MIC50
# [3] = tested on: herpes simplex virus type 1 (HSV-1) (strain KOS); assay type: cell-based; details: PRK cells
# vaccinia virus (VV) = assay type: cell-based; details: PRK cells, average of two determinations
# in vitro [4] = details: rabbit, prk cells
# in vitro [5] = details: rabbit, prk cells; remark: listed apart in the source
# HSV-1 (strain) F = assay: inhibition of cytopathic effect of HSV-1 strain F; assay type: cell-based, herpes simplex virus type 1; details: Human alphaherpesvirus 1; Table 4; HSV-1 F, PRK cells; read-out: MIC50
# [6] = antimetabolic activity: incorporation of 3H-labeled precursors into primary rabbit kidney cells; details: rabbit, prk cells
# [7] = 48 h, 10 μg/ml (value in parentheses)
Compound,EC50 (Reovirus),EC50 (Parainfluenza 3),EC50 (Sindbis),EC50 (Coxsackie B4),EC50 (Polio 1),EC50 (Measles),EC50 (Vesicular stomatitis),EC50 (Vaccinia),EC50 (Herpes simplex I (KOS); Table 3),"MIC50 (Herpes simplex I (KOS); Table 4, HSV-1 KOS)",EC50 (Herpes simplex 2 (G); Table 3),EC50 (Moloney sarcoma),EC50 (HSV-1 (strain) McIntyre),EC50 [2],EC50 (HSV-2 (strain) 196),EC50 (HSV-2 (strain) Lyons),"Titer of HSV-1 ([3]; 24 h, 100 μg/ml)","Titer of HSV-1 [3, 7]","Titer of HSV-1 ([3]; 48 h, 100 μg/ml)","Titer of VV (vaccinia virus (VV); 48 h, 100 μg/ml)",also measured
"Nc1ncnc2c1ncn2CCOCP(=O)(O)O [No. 6, 9-(2-phosphonylmethoxyethyl)adenine]",> 400 µg/mL,> 400 µg/mL,> 400 µg/mL,> 200 µg/mL,> 400 µg/mL,> 400 µg/mL,> 400 µg/mL,300 µg/mL,15 to 30 µg/mL,15 to 30 µg/mL,7 µg/mL,0.67 µg/mL,30 µg/mL,7 µg/mL,15 µg/mL,15 µg/mL,< 1.3 log10 PFU/ml,6.36 log10 PFU/ml,3.34 log10 PFU/ml,5.54 log10 PFU/ml,EC50 [1]: 3 µg/mL; MCC at 72 h (in vitro [4]): ≥ 200 µg/mL; IC50 (in vitro [5]; ID50 Leu incorporation): > 400 µg/mL; IC50 (in vitro [5]; ID50 Urd incorporation): > 400 µg/mL; IC50 (in vitro [5]; ID50 dThd incorporation): 242 µg/mL; IC50 (in vitro [5]; ID50 dUrd incorporation): 114 µg/mL
"O=c1[nH]c(=O)n([C@H]2C[C@H](O)[C@@H](CO)O2)cc1I [IDU, 5-iodo-2'-deoxyuridine, reference compound]",,,,,,,,,,,,,0.2 µg/mL,,2 µg/mL,0.2 µg/mL,,,,,"EC50 (Herpes simplex I (KOS); Table 4, HSV-1 KOS): 0.2 µg/mL; EC50 (Herpes simplex 2 (G); Table 4, HSV-2 G): 0.2 µg/mL; EC50 (HSV-1 (strain) F): 0.2 µg/mL"
"Nc1ncnc2c1ncn2CC(O)COCP(=O)(O)O (racemic) [No. 2, (RS)-9-(2-hydroxy-3-phosphonylmethoxypropyl)-adenine]",> 200 µg/mL,> 200 µg/mL,> 400 µg/mL,> 400 µg/mL,> 400 µg/mL,> 20 µg/mL,> 400 µg/mL,0.3 to 1 µg/mL,2 to 10 µg/mL,2 to 10 µg/mL,10 to 15 µg/mL,4.5 µg/mL,10 to 15 µg/mL,7 µg/mL,10 to 15 µg/mL,10 to 15 µg/mL,< 1.3 log10 PFU/ml,< 6.0 log10 PFU/ml,< 1.3 log10 PFU/ml,2.0 log10 PFU/ml,"EC50 (Herpes simplex 2 (G); Table 4, HSV-2 G): 10 to 15 µg/mL; EC50 (HSV-1 (strain) F): 10 to 15 µg/mL; Titer of VV (vaccinia virus (VV); 1 h, 100 μg/ml): 2.2 log10 PFU/ml; Titer of VV (vaccinia virus (VV); 24 h, 100 μg/ml): 2.2 log10 PFU/ml; Titer of VV (vaccinia virus (VV); [7]): < 1.3 log10 PFU/ml; Titer of VV (vaccinia virus (VV); 72 h, 100 μg/ml): 1.8 log10 PFU/ml; MCC at 72 h (in vitro [4]): > 400 µg/mL; IC50 ([6]; ID50 Leu incorporation, (3H-4,5)Leu): > 400 µg/mL; IC50 ([6]; ID50 Urd incorporation, (3H-5)Urd): > 400 µg/mL; IC50 ([6]; ID50 dThd incorporation, (3H-methyl) dThd): 280 µg/mL; IC50 ([6]; ID50 dUrd incorporation, (3H-1',2')dUrd): > 400 µg/mL"
